According to US11753408B2, “Compounds and method for blocking transmission of malarial parasite” (The United States of America, as represented by the …, priority 2016, dated 2023):

Legend:
[1] = tested on: Stage III-V gametocytes (blood stage P. falciparum parasites); assay: In vitro drug activity on gametocytes (AlamarBlue viability assay); type: cell-based, Plasmodium falciparum; settings: P. falciparum stage III-V gametocytes, 72 h incubation, AlamarBlue; for EC50: read-out: Gametocyte EC50
How it was run: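 Viability was measured by AlamarBlue fluorescence (Ex 525/Em 598 nm) after 24 h dye incubation following 72 h compound exposure at 37° C, 5% CO2. Gametocytes, stage III–V from strains 3D7, HB3 and Dd2, were NAG/Percoll-enriched and plated at 20,000 cells/well.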

[2] = tested on: Asexual parasites of P. falciparum strain 3D7; assay: In vitro drug activity on asexual parasites (SYBR Green assay); type: cell-based, Plasmodium falciparum; settings: P. falciparum 3D7 asexual parasites, 72 h, SYBR Green
How it was run: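 SYBR Green I fluorescence (ex 490, em 520 nm) was read after freeze-thaw lysis and 30 min staining at room temperature. Before that, drug-treated cultures (0.5% parasitemia, 2% hematocrit, DMSO ≤0.5%) were incubated 72 h, in duplicate.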

[3] = Microsomal stability (rat); type: in vitro ADME; settings: rat microsomes
[4] = Solubility at pH 7.4; type: physicochemical
[5] = PAMPA permeability; type: in vitro ADME; settings: PAMPA

Row | EC50 [2] [nM] | Microsomal Stability (rat) T1/2 [3] [min] | Sol @ pH 7.4 (ug/mL) [4] [ug/mL] | PAMPA Permeability (×10^6 cm/s) [5] | SMILES | EC50 [1] [nM] | Gametocyte EC50 (nM) [1]
1 | 111 | 12.1 | <0.1 | 621.2 ×10^6 cm/s | Cc1ccc(C#N)cc1-n1c(=O)ccc2cnc3ccc(-c4ccc(Cl)cc4)cc3c21 [Compound 3] | 264 | 
2 | 14.9 | 9.6 | <1 | 21 ×10^6 cm/s | Cc1cc(N2CCNCC2)c(C#N)cc1-n1c(=O)ccc2cnc3ccc(-c4ccc(Cl)cc4)cc3c21 [Compound 4] | 55 | 
3 | 60.3 | 14.5 | <1 | <1 ×10^6 cm/s | Cc1c(C#N)cccc1-n1c(=O)ccc2cnc3ccc(-c4ccc(Cl)cc4)cc3c21 [Compound 8] | 139 | 
4 | 11.7 | >30.0 | <1.0 | 505.6 ×10^6 cm/s | N#Cc1cccc(-n2c(=O)ccc3cnc4ccc(-c5ccc(N)nc5)cc4c32)c1 [Compound 20] | 22.6 | 
5 | 5.88 | 19 | 5.7 | 547.9 ×10^6 cm/s | Cc1c(C#N)cccc1-n1c(=O)ccc2cnc3ccc(-c4ccc(N)nc4)cc3c21 [Compound 24] | 23.4 | 
6 | 14.7 | >30.0 | <1.0 | <1.5 ×10^6 cm/s | CS(=O)(=O)c1ccc(-n2c(=O)ccc3cnc4ccc(-c5ccc(Cl)cc5)cc4c32)cc1 [Compound 25] | 117 | 
7 | 16.2 | >30.0 | <1.0 | 33.9 ×10^6 cm/s | CS(=O)(=O)c1ccc(-n2c(=O)ccc3cnc4ccc(-c5ccc(Cl)c(N)c5)cc4c32)cc1 [Compound 28] | 95.3 | 
8 | 118 | >30.0 | 30.4 | 677.9 ×10^6 cm/s | CN(C)Cc1ccc(-c2ccc3ncc4ccc(=O)n(-c5ccc(S(C)(=O)=O)cc5)c4c3c2)cc1 [Compound 30] | 336 | 
9 | 220 | 12.7 | <1.0 | 32.5 ×10^6 cm/s | O=c1ccc2cnc3ccc(-c4ccc(Cl)cc4)cc3c2n1-c1ccc(S(=O)(=O)N2CCOCC2)cc1 [Compound 38] | 187 | 
10 | 31.2 | 4.6 | <1.0 | 34.8 ×10^6 cm/s | CN(C)C=NS(=O)(=O)c1ccc(-n2c(=O)ccc3cnc4ccc(-c5ccc(Cl)cc5)cc4c32)cc1 [Compound 44] | 135 | 
11 | 66.4 | >30.0 | 2.1 | <2.9 ×10^6 cm/s | CS(=O)(=O)c1ccc(-n2c(=O)ccc3cnc4ccc(-c5ccc(CN)cc5)cc4c32)cc1 [Compound 47] | 377 | 
12 | 200 | >30.0 | <1.0 | <1.0 ×10^6 cm/s | Cc1cc(-c2ccc3ncc4ccc(=O)n(-c5ccc(S(C)(=O)=O)cc5)c4c3c2)ccc1Cl [Compound 48] | 561 | 
13 |  | >30.00 | 21.28 | 1646.44 ×10^6 cm/s | CN(C)Cc1cccc(-c2ccc3ncc4ccc(=O)n(-c5ccc(S(C)(=O)=O)cc5)c4c3c2)c1 [Compound 60] | 1950 | 
14 |  | 1.4 | <1 | 135 ×10^6 cm/s | CS(=O)(=O)c1ccc(-n2c(=O)ccc3cnc4ccc(-c5ccc(Cl)cc5)cc4c32)cc1CN1CCOCC1 [Compound 66] | 350 | 
15 |  | >30 | >70 | 2.3 ×10^6 cm/s | O=C1NCc2cc(-n3c(=O)ccc4cnc5ccc(-c6ccc(CN7CCC7)cc6)cc5c43)ccc21 [Compound 378] | 1550 | 
16 |  | >30 | 11.3 | 3.9 ×10^6 cm/s | Nc1ccc(-c2ccc3ncc4ccc(=O)n(-c5ccc6c(c5)C(=O)NC6=O)c4c3c2)cn1 [Compound 395] | 46000 | 

Continued, molecule first:

Row | SMILES | EC50 [2] [nM] | Microsomal Stability (rat) T1/2 [3] [min] | Sol @ pH 7.4 (ug/mL) [4] [ug/mL] | PAMPA Permeability (×10^6 cm/s) [5] | EC50 [1] [nM] | Gametocyte EC50 (nM) [1]
17 | CN(C)Cc1ccc(-c2ccc3ncc4ccc(=O)n(-c5cccc(C#N)c5)c4c3c2)cc1 [Compound 2] | 291 | >30.0 | >64.0 | 1040.6 ×10^6 cm/s | 428 | 
18 | CCN(CC)Cc1ccc(-c2ccc3ncc4ccc(=O)n(-c5cc(C#N)ccc5C)c4c3c2)cc1 [Compound 9] | 668 | 10.9 | 58.6 | 1492.3 ×10^6 cm/s | 2570 | 
19 | Cc1ccc(C#N)cc1-n1c(=O)ccc2cnc3ccc(-c4ccc(N)nc4)cc3c21 [Compound 21] | 13.8 | 12.7 | 1.1 | 606 ×10^6 cm/s | 17 | 
20 | N#Cc1cc(-n2c(=O)ccc3cnc4ccc(-c5ccc(N)nc5)cc4c32)ccc1N1CCOCC1 [Compound 23] | 22.5 | 3.5 | 1.48 | 58.15 ×10^6 cm/s | 40.4 | 
21 | COc1cc(-c2ccc3ncc4ccc(=O)n(-c5ccc(S(C)(=O)=O)cc5)c4c3c2)ccc1Cl [Compound 31] | 33.5 | >30.0 | <1.0 | 40.7 ×10^6 cm/s | 222 | 
22 | CS(=O)(=O)c1ccc(-n2c(=O)ccc3cnc4ccc(-c5ccc(Cl)c(C#N)c5)cc4c32)cc1 [Compound 32] | 85.5 | >30.0 | <1.0 | 39.6 ×10^6 cm/s | 92.8 | 
23 | NS(=O)(=O)c1ccc(-n2c(=O)ccc3cnc4ccc(-c5ccc(Cl)cc5)cc4c32)cc1 [Compound 40] | 14.6 | >30.0 | <1.0 | <1.0 ×10^6 cm/s | 51.7 | 
24 | CN(C)S(=O)(=O)c1ccc(-n2c(=O)ccc3cnc4ccc(-c5ccc(Cl)cc5)cc4c32)cc1 [Compound 42] | 37.4 | 4.9 | <1.0 | 97.4 ×10^6 cm/s | 118 | 
25 | CS(=O)(=O)c1ccc(-n2c(=O)ccc3cnc4ccc(-c5ccc(Cl)c(C(=O)O)c5)cc4c32)cc1 [Compound 43] | 43800 | >30.0 | >74.0 | <1.0 ×10^6 cm/s |  | Inactive
26 | CS(=O)(=O)c1ccc(-n2c(=O)ccc3cnc4ccc(-c5ccc(Cl)c(N)c5)cc4c32)cc1C(F)(F)F [Compound 45] | 77.8 | 8.9 | <1.0 | 144.4 ×10^6 cm/s | 209 | 
27 | COC(=O)c1cc(-c2ccc3ncc4ccc(=O)n(-c5ccc(S(C)(=O)=O)cc5)c4c3c2)ccc1Cl [Compound 49] | 3190 | 4.3 | <1.0 | 235.8 ×10^6 cm/s | 1990 | 
28 | CN(C)Cc1cc(-n2c(=O)ccc3cnc4ccc(-c5ccc(Cl)cc5)cc4c32)ccc1S(C)(=O)=O [Compound 67] |  | 1.7 | <1 | 1449.1 ×10^6 cm/s | 1340 | 
29 | CS(=O)(=O)c1cccc(-n2c(=O)ccc3cnc4ccc(-c5ccc(N)nc5)cc4c32)c1 [Compound 80] |  | 7.1 | 49.68 | 50.85 ×10^6 cm/s | 214 | 
30 | CS(=O)(=O)c1ccc(-n2c(=O)ccc3cnc4ccc(-c5ccc(N)nc5)cc4c32)cc1N1CCOCC1 [Compound 83] |  | >30.00 | 5.62 | 58.31 ×10^6 cm/s | 74.7 | 
31 | O=C1NCc2cc(-n3c(=O)ccc4cnc5ccc(-c6ccc(Cl)cc6)cc5c43)ccc21 [Compound 339] |  | >30.0 | <1.0 | <1.0 ×10^6 cm/s | 9.19 | 
32 | O=C1NCc2ccc(-n3c(=O)ccc4cnc5ccc(-c6ccc(Cl)cc6)cc5c43)cc21 [Compound 344] |  | 19.2 | <1.0 | 238.8 ×10^6 cm/s | 1500 | 
